What was measured:
[1] = tested on: T47D (PI3Kα-H1047R) cell line; assay: HTRF phospho-AKT(S473) cell assay in T47D cells; assay type: cell-based, human
Method: (§1) Compounds in the present disclosure were tested in a cell based HTRF phospho-AKT(S473) (CisBio/Revvity) assay in human breast cancer cell lines as a measurement of PIK3CA activity through measuring AKT, a downstream effector. The activity of mutant PI3Kα-H1047R and PI3Kα-Wild Type was measured in the T47D (PI3Kα-H1047R) and SKBR3 (PI3Kα-Wild Type) cell lines, respectively. T47D cells were plated at 20,000 cells per well in 50 μL in RPMI medium supplemented with 10% FBS and 0.2 units/mL insulin, in 384 well plates. SKBR3 cells were plated at 25,000 cells per well in 50 μL in McCoy's 5A medium supplemented with 10% FBS, in 384 well plates. Cells were plated using a Combi Multidrop reagent dispenser (ThermoFisher), and placed in 5% CO2, 37° C. incubator overnight to adhere.
(§2) The next day, cells were treated with either compounds or vehicle (DMSO) in a 12-fold dose response curve of 1:3 dilutions, with 5 μM and 10 μM as the top concentrations for the T47D and SKBR3 cell lines, respectively. Compound treatment was facilitated via the D300e digital dispenser (Tecan), with a maximum DMSO concentration of 0.5%. Following compound addition, cell plates were incubated for 2 hours in 5% CO2, 37° C. incubator. The SKBR3 cells were stimulated and treated with 70 ng/ml PDGF-BB ligand (ThermoFisher) for the remaining 15 minutes of the incubation. Following compound incubation, compound and media was aspirated from the cells and 25 μL of supplemented lysis buffer was added per well, and incubated for 45 minutes at room temperature, shaking at 600 rpm. Next, 16 μL of cell lysate was added to a 384 well low volume ProxyPlate (Perkin Elmer/Revvity) mixed with 4 μL of HTRF antibodies (1:1 Eu Cryptate+d2 Cryptate). HTRF supplemented lysis buffer and antibody reagents were used from the phosphor-AKT(S473) HTRF assay kit (CisBio/Revvity), following manufacturers protocol recommendations. Plates were sealed and incubated at 4° C. overnight.
(§3) The following day, plates were centrifuged for 1 minute at 1000 rpm, and read on a PHERAstar plate reader. IC50 values were calculated using Spotfire software.

[2] = tested on: SKBR3 (PI3Kα-Wild Type) cell line; assay: HTRF phospho-AKT(S473) cell assay in SKBR3 cells; assay type: cell-based, human
Method: as §1, §2, §3

[3] = Homo sapiens; HTRF phospho-AKT(S473), T47D (PI3Kα-H1047R) cells, 2 hours compound incubation
[4] = Homo sapiens, SK-BR-3; HTRF phospho-AKT(S473), SKBR3 (PI3Kα-Wild Type) cells, 2 hours compound incubation, PDGF-BB stimulated
[5] = Homo sapiens; T47D (PI3Kα-H1047R) cells, HTRF phospho-AKT(S473), 2 hours compound incubation
[6] = Homo sapiens, SK-BR-3; SKBR3 (PI3Kα-Wild Type) cells, HTRF phospho-AKT(S473), 2 hours compound incubation, PDGF-BB stimulated

SMILES	IC50 [1, 3]	IC50 [2, 4]	IC50 [1, 5]	IC50 [2, 6]	IC50 ([1]; HTRF phospho-AKT(S473), T47D (PI3Kα-H1047R) cells, 2 hours compound incubation)
Cc1cc([C@@H](C)Nc2ccc(Cl)nc2C(=O)NS(C)(=O)=O)c2nc(-c3ccc(N4CCN(C)CC4)cc3)n(C)c(=O)c2c1 [Compound 790, (R)-6-chloro-3-((1-(3,6-dimethyl-2-(4-(4-methylpiperazin-1-yl)phenyl)-4-oxo-3,4-dihydroquinazolin-8-yl)ethyl)amino)-N-(methylsulfonyl) picolinamide]	< 250 nM	≥ 5000 nM			
Cc1cc([C@@H](C)Nc2ccc(Cl)nc2C(=O)NS(C)(=O)=O)c2nc(N3Cc4cnn(C5(C(F)(F)F)CC5)c4C3)n(C)c(=O)c2c1 [Compound 179, (R)-6-chloro-3-((1-(3,6-dimethyl-4-oxo-2-(1-(1-(trifluoromethyl)cyclopropyl)-4,6-dihydropyrrolo[3,4-c]pyrazol-5(1H)-yl)-3,4-dihydroquinazolin-8-yl)ethyl)amino)-N-(methylsulfonyl) picolinamide]			< 250 nM	1000 to 5000 nM	
Cc1cc([C@@H](C)Nc2ccc(Cl)nc2C(=O)NS(C)(=O)=O)c2nc(N3CCC[C@@H](c4ccccn4)C3)n(C)c(=O)c2c1 (relative stereo) [Compound 208, 6-chloro-3-(((R)-1-(3,6-dimethyl-4-oxo-2-((R*)-3-(pyridin-2-yl)piperidin-1-yl)-3,4-dihydroquinazolin-8-yl)ethyl)amino)-N-(methylsulfonyl) picolinamide]			250 to 500 nM	≥ 5000 nM	
CO[C@H]1CC[C@@H](n2ncc(-c3nc4c([C@@H](C)Nc5ccc(Cl)nc5C(=O)NS(C)(=O)=O)cc(C)cc4c(=O)n3C)c2C)CC1 (relative stereo) [Compound 380, 6-chloro-3-(((R)-1-(2-(1-((1S*,4S*)-4-methoxycyclohexyl)-5-methyl-1H-pyrazol-4-yl)-3,6-dimethyl-4-oxo-3,4-dihydroquinazolin-8-yl)ethyl)amino)-N-(methylsulfonyl) picolinamide]			< 250 nM	≥ 5000 nM	
CC(=O)N1CCC(c2ccc(-c3nc4c([C@@H](C)Nc5ccc(Cl)nc5C(=O)NS(C)(=O)=O)cc(C)cc4c(=O)n3C)cc2F)CC1 [Compound 786, (R)-3-((1-(2-(4-(1-acetylpiperidin-4-yl)-3-fluorophenyl)-3,6-dimethyl-4-oxo-3,4-dihydroquinazolin-8-yl)ethyl)amino)-6-chloro-N-(methylsulfonyl) picolinamide]	< 250 nM	1000 to 5000 nM			
Cc1cc([C@@H](C)Nc2ccc(Cl)nc2C(=O)NS(C)(=O)=O)c2nc(N3CC[C@H](Nc4ncccn4)C3)n(C)c(=O)c2c1 [Compound 540, 6-chloro-3-(((R)-1-(3,6-dimethyl-4-oxo-2-((S)-3-(pyrimidin-2-ylamino)pyrrolidin-1-yl)-3,4-dihydroquinazolin-8-yl)ethyl)amino)-N-(methylsulfonyl) picolinamide]	250 to 500 nM	≥ 5000 nM			
Cc1cc([C@@H](C)Nc2ccc(Cl)nc2C(=O)NS(C)(=O)=O)c2nc(N3C[C@@H]4C[C@H]3C[C@@H]4c3nn(C)cc3F)n(C)c(=O)c2c1 (relative stereo) [Compound 760, 6-chloro-3-(((R)-1-(2-((1R*,4S*,5R*)-5-(4-fluoro-1-methyl-1H-pyrazol-3-yl)-2-azabicyclo[2.2.1]heptan-2-yl)-3,6-dimethyl-4-oxo-3,4-dihydroquinazolin-8-yl)ethyl)amino)-N-(methylsulfonyl) picolinamide]					250 to 500 nM

The remaining lines, values ahead:

IC50 [1, 3]	IC50 [2, 4]	IC50 [1, 5]	IC50 [2, 6]	IC50 ([1]; HTRF phospho-AKT(S473), T47D (PI3Kα-H1047R) cells, 2 hours compound incubation)	SMILES
250 to 500 nM	≥ 5000 nM				Cc1cnc([C@@H]2CCCN(c3nc4c([C@@H](C)Nc5ccc(Cl)nc5C(=O)NS(C)(=O)=O)cc(C)cc4c(=O)n3C)C2)nc1 (relative stereo) [Compound 625, 6-chloro-3-(((R)-1-(3,6-dimethyl-2-((R*)-3-(5-methylpyrimidin-2-yl)piperidin-1-yl)-4-oxo-3,4-dihydroquinazolin-8-yl)ethyl)amino)-N-(methylsulfonyl) picolinamide]
< 250 nM	1000 to 5000 nM				Cc1cc([C@@H](C)Nc2ccc(Cl)nc2C(=O)NS(C)(=O)=O)c2nc(N3C[C@@H]4[C@H](C3)[C@H]4c3coc(C)n3)n(C)c(=O)c2c1 [Compound 448, 6-chloro-3-(((R)-1-(3,6-dimethyl-2-((1R,5S,6R)-6-(2-methyloxazol-4-yl)-3-azabicyclo[3.1.0]hexan-3-yl)-4-oxo-3,4-dihydroquinazolin-8-yl)ethyl)amino)-N-(methylsulfonyl) picolinamide]
		250 to 500 nM	≥ 5000 nM		Cc1cc([C@@H](C)Nc2ccc(Cl)nc2C(=O)NS(C)(=O)=O)c2nc(N3CCC[C@@H](Oc4cnc(C)cn4)C3)n(C)c(=O)c2c1 [Compound 376, 6-chloro-3-(((R)-1-(3,6-dimethyl-2-((R)-3-((5-methylpyrazin-2-yl)oxy)piperidin-1-yl)-4-oxo-3,4-dihydroquinazolin-8-yl)ethyl)amino)-N-(methylsulfonyl) picolinamide]
250 to 500 nM	1000 to 5000 nM				Cc1cc([C@@H](C)Nc2ccc(Cl)nc2C(=O)NS(C)(=O)=O)c2nc(N3CCC(n4cc(F)c(C)n4)CC3)n(C)c(=O)c2c1 [Compound 492, (R)-6-chloro-3-((1-(2-(4-(4-fluoro-3-methyl-1H-pyrazol-1-yl)piperidin-1-yl)-3,6-dimethyl-4-oxo-3,4-dihydroquinazolin-8-yl)ethyl)amino)-N-(methylsulfonyl) picolinamide]
		< 250 nM	1000 to 5000 nM		Cc1cc([C@@H](C)Nc2ccc(Cl)nc2C(=O)NS(C)(=O)=O)c2nc(N3CCC(c4ccc(C)nc4)CC3)n(C)c(=O)c2c1 [Compound 271, (R)-6-chloro-3-((1-(3,6-dimethyl-2-(4-(6-methylpyridin-3-yl)piperidin-1-yl)-4-oxo-3,4-dihydroquinazolin-8-yl)ethyl)amino)-N-(methylsulfonyl) picolinamide]
< 250 nM	1000 to 5000 nM				Cc1cc([C@@H](C)Nc2ccc(Cl)nc2C(=O)NS(C)(=O)=O)c2nc(N3CC[C@@H](c4ccnc(C)c4)C3)n(C)c(=O)c2c1 (relative stereo) [Compound 764, 6-chloro-3-(((R)-1-(3,6-dimethyl-2-((R*)-3-(2-methylpyridin-4-yl)pyrrolidin-1-yl)-4-oxo-3,4-dihydroquinazolin-8-yl)ethyl)amino)-N-(methylsulfonyl) picolinamide]
250 to 500 nM	1000 to 5000 nM				Cc1cc([C@@H](C)Nc2ccc(Cl)nc2C(=O)NS(C)(=O)=O)c2nc(N3C[C@@H]4[C@H](C3)[C@H]4c3csc(C)n3)n(C)c(=O)c2c1 [Compound 476, 6-chloro-3-(((R)-1-(3,6-dimethyl-2-((1R,5S,6R)-6-(2-methylthiazol-4-yl)-3-azabicyclo[3.1.0]hexan-3-yl)-4-oxo-3,4-dihydroquinazolin-8-yl)ethyl)amino)-N-(methylsulfonyl) picolinamide]
		250 to 500 nM	≥ 5000 nM		Cc1cc([C@@H](C)Nc2ccc(Cl)nc2C(=O)NS(C)(=O)=O)c2nc(N3C[C@@H]4[C@H](C3)[C@H]4c3c(F)cnn3C)n(C)c(=O)c2c1 [Compound 424, 6-chloro-3-(((R)-1-(2-((1R,5S,6R)-6-(4-fluoro-1-methyl-1H-pyrazol-5-yl)-3-azabicyclo[3.1.0]hexan-3-yl)-3,6-dimethyl-4-oxo-3,4-dihydroquinazolin-8-yl)ethyl)amino)-N-(methylsulfonyl) picolinamide]
< 250 nM	1000 to 5000 nM				Cc1cc([C@@H](C)Nc2ccc(Cl)nc2C(=O)NS(C)(=O)=O)c2nc(N3C[C@@H]4[C@H](C3)[C@H]4c3cnc(C(F)F)nc3)n(C)c(=O)c2c1 [Compound 522, 6-chloro-3-(((R)-1-(2-((1R,5S,6S)-6-(2-(difluoromethyl)pyrimidin-5-yl)-3-azabicyclo[3.1.0]hexan-3-yl)-3,6-dimethyl-4-oxo-3,4-dihydroquinazolin-8-yl)ethyl)amino)-N-(methylsulfonyl) picolinamide]
250 to 500 nM	1000 to 5000 nM				Cc1cc([C@@H](C)Nc2ccc(Cl)nc2C(=O)NS(C)(=O)=O)c2nc(N3C[C@@H]4[C@H](C3)[C@H]4c3cc[nH]n3)n(C)c(=O)c2c1 [Compound 699, 3-(((R)-1-(2-((1R,5S,6R)-6-(1H-pyrazol-3-yl)-3-azabicyclo[3.1.0]hexan-3-yl)-3,6-dimethyl-4-oxo-3,4-dihydroquinazolin-8-yl)ethyl)amino)-6-chloro-N-(methylsulfonyl) picolinamide]

— patent US12281122B1, “PI3K inhibitors” (Cogent Biosciences, Inc., priority 2023, dated 2025)
